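GI50 marks 50% less growth. At the TGI there is no net growth.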
Key:
Test in all cases: inhibition of tumour cell growth, NCI panel, 384-well format
HCT-15 colon = system: HCT-15 colon
COLO 205 colon = system: COLO 205 colon
NCI-H460 NSCLC = system: NCI-H460 NSCLC
MCF7 breast = system: MCF7 breast
M14 melanoma = system: M14 melanoma
SK-OV-3 ovarian = system: SK-OV-3 ovarian
UACC-257 melanoma = system: UACC-257 melanoma
MALME-3M melanoma = system: MALME-3M melanoma
IGROV1 ovarian = system: IGROV1 ovarian
SK-MEL-28 melanoma = system: SK-MEL-28 melanoma
K-562 leukemia = system: K-562 leukemia
HT29 colon = system: HT29 colon
LOX IMVI melanoma = system: LOX IMVI melanoma
OVCAR-4 ovarian = system: OVCAR-4 ovarian
SW-620 colon = system: SW-620 colon
RPMI-8226 leukemia = system: RPMI-8226 leukemia
HOP-62 NSCLC = system: HOP-62 NSCLC
UACC-62 melanoma = system: UACC-62 melanoma
HL-60(TB) leukemia = system: HL-60(TB) leukemia
A549 NSCLC = system: A549 NSCLC
SF-268 CNS = system: SF-268 CNS
TK-10 renal = system: TK-10 renal
786-0 renal = system: 786-0 renal
MDA-MB-435 melanoma = system: MDA-MB-435 melanoma
U251 glioblastoma = system: U251 glioblastoma
SF-295 CNS = system: SF-295 CNS
SN12C renal = system: SN12C renal
DU-145 prostate = system: DU-145 prostate
HOP-92 NSCLC = system: HOP-92 NSCLC
MDA-MB-231 breast = system: MDA-MB-231 breast
PC-3 prostate = system: PC-3 prostate
KM12 colon = system: KM12 colon
SR leukemia = system: SR leukemia
OVCAR-3 ovarian = system: OVCAR-3 ovarian
NCI/ADR-RES ovarian = system: NCI/ADR-RES ovarian
A498 renal = system: A498 renal
HCC-2998 colon = system: HCC-2998 colon
SK-MEL-5 melanoma = system: SK-MEL-5 melanoma
UO-31 renal = system: UO-31 renal
ACHN renal = system: ACHN renal
NCI-H226 lung = system: NCI-H226 lung
OVCAR-5 ovarian = system: OVCAR-5 ovarian
NCI-H522 lung = system: NCI-H522 lung
NCI-H322M lung = system: NCI-H322M lung
SNB-19 CNS = system: SNB-19 CNS
SF-539 CNS = system: SF-539 CNS
OVCAR-8 ovarian = system: OVCAR-8 ovarian
T-47D breast = system: T-47D breast
MOLT-4 leukemia = system: MOLT-4 leukemia
MDA-MB-468 breast = system: MDA-MB-468 breast
CAKI-1 renal = system: CAKI-1 renal
BT-549 breast = system: BT-549 breast
SK-MEL-2 melanoma = system: SK-MEL-2 melanoma
NCI-H23 lung = system: NCI-H23 lung
RXF 393 renal = system: RXF 393 renal
CCRF-CEM leukemia = system: CCRF-CEM leukemia
HCT-116 colon = system: HCT-116 colon

## Cc1c(-c2ccc(N3CCc4cccc(C(=O)Nc5nc6ccccc6s5)c4C3)nc2C(=O)O)cnn1CC12CC3CC(CC(C3)C1)C2
HCT-15 colon
  GI50: 4.28 µM
  TGI: 16.6 µM
COLO 205 colon
  GI50: 0.272 µM
  TGI: 1.73 µM
NCI-H460 NSCLC
  GI50: 17.1 µM
  TGI: 30.8 µM
MCF7 breast
  GI50: 14.2 µM
  TGI: 27.2 µM
M14 melanoma
  GI50: 16 µM
  TGI: 29.5 µM
SK-OV-3 ovarian
  GI50: 6.03 µM
  TGI: 18.7 µM
UACC-257 melanoma
  GI50: 9.83 µM
  TGI: 21.5 µM
MALME-3M melanoma
  GI50: 11.6 µM
  TGI: 23.8 µM
IGROV1 ovarian
  GI50: 1.67 µM
  TGI: 4 µM
SK-MEL-28 melanoma
  GI50: 4.35 µM
  TGI: 16.3 µM
K-562 leukemia
  GI50: 10.8 µM
  TGI: 22.8 µM
HT29 colon
  GI50: 12.9 µM
  TGI: 25.6 µM
LOX IMVI melanoma
  GI50: 6.46 µM
  TGI: 18.6 µM
OVCAR-4 ovarian
  GI50: 0.0115 µM
  TGI: 13.2 µM
SW-620 colon
  GI50: 12.4 µM
  TGI: 24.8 µM
RPMI-8226 leukemia
  GI50: < 0.01 µM
  TGI: < 0.01 µM
HOP-62 NSCLC
  GI50: 15.3 µM
  TGI: 28.7 µM
UACC-62 melanoma
  GI50: 13.6 µM
  TGI: 26.4 µM
HL-60(TB) leukemia
  GI50: 2.53 µM
  TGI: 5.94 µM
A549 NSCLC
  GI50: 8.57 µM
  TGI: 21 µM
SF-268 CNS
  GI50: 15.2 µM
  TGI: 28.5 µM
TK-10 renal
  GI50: 2.48 µM
  TGI: 16 µM
786-0 renal
  GI50: 3.65 µM
  TGI: 15.5 µM
MDA-MB-435 melanoma
  GI50: 2.47 µM
  TGI: 14 µM
U251 glioblastoma
  GI50: 11.6 µM
  TGI: 23.9 µM
SF-295 CNS
  GI50: 3.63 µM
  TGI: 15.2 µM
SN12C renal
  GI50: 13.5 µM
  TGI: 26.4 µM
DU-145 prostate
  GI50: 16.7 µM
  TGI: 30.4 µM
HOP-92 NSCLC
  GI50: < 0.01 µM
  TGI: 0.0174 µM
MDA-MB-231 breast
  GI50: < 0.01 µM
  TGI: 0.186 µM
PC-3 prostate
  GI50: 4.89 µM
  TGI: 17.4 µM
KM12 colon
  GI50: 11.2 µM
  TGI: 23.2 µM
SR leukemia
  GI50: 0.0191 µM
  TGI: 2.47 µM
OVCAR-3 ovarian
  GI50: 4.03 µM
  TGI: 18.1 µM
NCI/ADR-RES ovarian
  GI50: 13.5 µM
  TGI: 26.4 µM
A498 renal
  GI50: 0.0911 µM
  TGI: 2.39 µM
HCC-2998 colon
  GI50: < 0.01 µM
  TGI: 0.0661 µM
SK-MEL-5 melanoma
  GI50: 12.8 µM
  TGI: 25.4 µM
UO-31 renal
  GI50: 1.14 µM
  TGI: 12 µM
ACHN renal
  GI50: 11.6 µM
  TGI: 23.8 µM
NCI-H226 lung
  GI50: 1 µM
  TGI: 11.5 µM
OVCAR-5 ovarian
  GI50: 0.351 µM
  TGI: 12.5 µM
NCI-H522 lung
  GI50: 3.66 µM
  TGI: 17.6 µM
NCI-H322M lung
  GI50: 7.97 µM
  TGI: 21 µM
SNB-19 CNS
  GI50: 10 µM
  TGI: 21.6 µM
SF-539 CNS
  GI50: 14.6 µM
  TGI: 27.8 µM
OVCAR-8 ovarian
  GI50: 11.8 µM
  TGI: 24.1 µM
T-47D breast
  GI50: 10.6 µM
  TGI: 22.4 µM
MOLT-4 leukemia
  GI50: < 0.01 µM
  TGI: < 0.01 µM
MDA-MB-468 breast
  GI50: 1.7 µM
  TGI: 7.04 µM
CAKI-1 renal
  GI50: 13.8 µM
  TGI: 26.8 µM
BT-549 breast
  GI50: 9.65 µM
  TGI: 21.4 µM
SK-MEL-2 melanoma
  GI50: < 0.01 µM
  TGI: 2.67 µM
NCI-H23 lung
  GI50: 8.42 µM
  TGI: 20.9 µM
RXF 393 renal
  GI50: < 0.01 µM
  TGI: 0.0108 µM
CCRF-CEM leukemia
  GI50: < 0.01 µM
  TGI: 0.0112 µM
HCT-116 colon
  GI50: 3.88 µM
  TGI: 16.9 µM

Source: PubChem BioAssay (NCI)
